Laboratory results as given in BigSolDB 2.1.

O=C1c2ccccc2-c2ccc(Br)cc21
solubility (mole fraction)
Conditions | in 1,4-dioxane | in acetonitrile | in ethanol | in ethyl acetate | in isopropanol | in methanol | in methyl acetate | in n-butanol | in n-butyl acetate | in n-propanol
278.15 K | – | 0.000793 | 0.000435 | 0.00515 | 0.000365 | 0.000214 | 0.00408 | 0.000924 | 0.00637 | 0.0006
283.15 K | 0.0136 | 0.001 | 0.000546 | 0.00603 | 0.000477 | 0.000265 | 0.00517 | 0.00119 | 0.00757 | 0.000747
288.15 K | 0.0167 | 0.00122 | 0.000674 | 0.00732 | 0.000604 | 0.000329 | 0.00608 | 0.00148 | 0.00911 | 0.000915
293.15 K | 0.0199 | 0.00152 | 0.000831 | 0.00865 | 0.000765 | 0.00042 | 0.00738 | 0.0018 | 0.0113 | 0.00116
298.15 K | 0.0241 | 0.00188 | 0.00101 | 0.0102 | 0.000969 | 0.000529 | 0.00882 | 0.00221 | 0.0136 | 0.00143
303.15 K | 0.0284 | 0.00227 | 0.00123 | 0.012 | 0.0012 | 0.00066 | 0.0105 | 0.00268 | 0.016 | 0.00173
308.15 K | 0.0334 | 0.00273 | 0.00146 | 0.0136 | 0.00148 | 0.000828 | 0.0123 | 0.00328 | 0.019 | 0.00208
313.15 K | 0.0391 | 0.00327 | 0.00174 | 0.016 | 0.00183 | 0.00102 | 0.0144 | 0.00393 | 0.0221 | 0.0025
318.15 K | 0.0455 | 0.00389 | 0.00205 | 0.0183 | 0.00224 | 0.00127 | 0.0168 | 0.00466 | 0.0259 | 0.00297
323.15 K | 0.0527 | 0.0046 | 0.00239 | 0.0212 | 0.0027 | 0.00157 | 0.0193 | 0.00553 | 0.03 | 0.0035
